Reference: patent EP0874850B1, “NOVEL TRICYCLIC COMPOUNDS FOR THE INHIBITION OF THE ICE/CED-3 PROTEASE FAMILY OF ENZYMES” (Idun Pharmaceuticals, Inc., priority 1996, dated 1998)
Residues, ends and D or L forms follow the SMILES beside them. *: point of attachment. Cbz = O=C(OCc1ccccc1)*; CH2F = FC*

Tests used:
Type in all cases: biochemical
CPP32 [1] = experiment: Fluorescence enzyme assay, determination of IC50 values (CPP32); conditions: recombinant enzyme; 30 minutes preincubation at room temperature; substrate Acetyl-Asp-Glu-Val-Asp-amino-4-methylcoumarin
Method: (§1) The substrate is Acetyl-Tyr-Val-Ala-Asp-amino-4-methylcoumarin (AMC) for the ICE assay and Acetyl-Asp-Glu-Val-Asp-amino-4-methylcoumarin for the CPP32, Mch2, Mch3 and Mch5 assays. Enzyme reactions were run in ICE buffer (25 mM HEPES, 1 mM EDTA, 0.1% CHAPS, 10% sucrose, pH 7.5) containing 2 mM DTT at room temperature in duplicate.
(§2) The enzyme and the compound of Formula 1 to be assayed were allowed to preincubate in the microtitre plate wells for 30 minutes at room temperature prior to the addition of substrate to initiate the reaction. Fluorescent AMC product formation was monitored for one hour at room temperature by measuring the fluorescence emission at 460 nm using an excitation wavelength of 360 nm. […]
(§3) The reference compound for this assay was Cbz-ValAlaAsp-H and the values are denoted in Table 1 as "Reference".

MCH-5 [2] = experiment: Fluorescence enzyme assay, determination of IC50 values (Mch5); conditions: 30 minutes preincubation at room temperature; substrate Acetyl-Asp-Glu-Val-Asp-amino-4-methylcoumarin
Method: as §1, §2, §3

MCH-3 = experiment: Fluorescence enzyme assay, determination of IC50 values (Mch3); conditions: 30 minutes preincubation at room temperature; substrate Acetyl-Asp-Glu-Val-Asp-amino-4-methylcoumarin
Method: as §1, §2, §3

mICE [3] = experiment: Fluorescence enzyme assay, determination of IC50 values (ICE); conditions: recombinant enzyme; 30 minutes preincubation at room temperature; substrate Acetyl-Tyr-Val-Ala-Asp-amino-4-methylcoumarin
Method: as §1, §2, §3

MCH-2 [4] = experiment: Fluorescence enzyme assay, determination of IC50 values (Mch2); conditions: 30 minutes preincubation at room temperature; substrate Acetyl-Asp-Glu-Val-Asp-amino-4-methylcoumarin
Method: as §1, §2, §3

mICE [5] = experiment: Determination of dissociation constant Ki and irreversible rate constant k3 for irreversible inhibitors (ICE)
Excerpt: (§4) For the irreversible inhibition of a ICE/ced-3 Family Protease enzyme with a competitive irreversible inhibitor; using the model represented by the following formulas: [drawing 15] [drawing 16] The product formation at time t may be expressed as: [formula] where E, I, EI and E-I denote the active enzyme, inhibitor, non-covalent enzyme-inhibitor complex and covalent enzyme-inhibitor adduct, respectively. The Ki value is the overall dissociation constant of the reversible binding steps, and k3 is the irreversible rate constant. The [S] and Ks values are the substate concentration and dissociation constant of the substrate bound to the enzyme, respectively. [E]^T is the total enzyme concentration.
(§5) The above equations were used to determine the Ki and k3 values of a given inhibitor bound to a ICE/ced-3 family protease. Thus, a continuous assay was run for sixty minutes at various concentrations of the inhibitor and the substrate. The assay was formulated essentially the same as described above for generating the data in Table 1, except that the reaction was initiated by adding the enzyme to the substrate-inhibitor mixture. The Ki and k3 values were obtained by simulating the product AMC formation as a function of time according to Equation I. The results of this second assay are set forth below in Table 2. […]

CPP32 [6] = experiment: Determination of dissociation constant Ki and irreversible rate constant k3 for irreversible inhibitors (CPP32)
Excerpt: as §4, §5

MCH-5 [7] = experiment: Determination of dissociation constant Ki and irreversible rate constant k3 for irreversible inhibitors (Mch5)
Excerpt: as §4, §5

MCH-2 [8] = experiment: Determination of dissociation constant Ki and irreversible rate constant k3 for irreversible inhibitors (Mch2)
Excerpt: as §4, §5

[9] = continuous assay for sixty minutes, reaction initiated by adding the enzyme

Row | Molecule | IC50 (CPP32 [1]) [µM] | IC50 (MCH-5 [2]) [nM] | IC50 (MCH-3) [µM] | IC50 (mICE [3]) [nM] | IC50 (MCH-2 [4]) [µM] | k3/Ki (mICE [5]; Reference) | Ki (mICE [5]; [9]) [nM] | k3/Ki (CPP32 [6]; Reference) | Ki (CPP32 [6]; [9]) [nM] | k3/Ki (MCH-5 [7]; Reference) | Ki (MCH-5 [7]; [9]) [nM] | k3/Ki (MCH-2 [8]; Reference) | Ki (MCH-2 [8]; [9]) [nM]
1 | CC(C)[C@H](NC(=O)OCc1ccccc1)C(=O)N[C@@H](C)C(=O)N[C@H](C=O)CC(=O)O [Ref., Cbz-ValAlaAsp-H] (Cbz-Val-Ala-Asp-aldehyde) | 47 | 2960 | > 10 | 64 | > 10 | – | – | – | – | – | – | – | –
2 | Cbz-Val-Ala-Asp-CH2F [Reference] | – | – | – | – | – | 214,000 M^-1s^-1 | 15 | 12,200 M^-1s^-1 | 820 | 83,300 M^-1s^-1 | 18 | 2,950 M^-1s^-1 | 594
